Earlier results as cited in patent publication US20210284969A1, “METHODS AND SYSTEMS FOR TRANSPORTATION AND CULTURE OF BUOYANT TISSUE” (eXo Cell, LLC, priority 2020, published 2021).

Experiments:
brown adipose tissue = conditions: in humans
[1] = test system: obese, diabetic yellow KK mice

## O=S(=O)(Nc1ccc(CCNC[C@H](O)c2cccnc2)cc1)c1ccc(-c2nc(-c3ccc(C(F)(F)F)cc3)cs2)cc1 [L-796568]
Obese human males
  anti-obesity effects: did not generate notable anti-obesity effects
  energy expenditure: improved energy expenditure

## Nc1nc(CC(=O)Nc2ccc(CCNC[C@H](O)c3ccccc3)cc2)cs1 [migrabegron]
Brown adipose tissue
  brown adipose tissue activation: activate brown adipose tissue

## C[C@H](Cc1ccc2c(c1)OC(C(=O)[O-])(C(=O)[O-])O2)NC[C@H](O)c1cccc(Cl)c1.[Na+].[Na+] [CL-316243]
[1]
  effect on obesity: ameliorated obesity
